These results are taken from patent US8309685B2 (Celgene Avilomics Research, Inc., priority 2007, dated 2012).

Where only a bound is given, the exact number is not on record here.

Holding throughout (format): biochemical
Experiment [1] deals with T1, D168A mutant of the HCV NS3/4A 1b protease enzyme (Hepatitis C virus genotype 1b, UniProt P26663, D1194A).
T1 construct: 10× stocks of NS3/4A protease enzyme from Bioenza (Mountain View, Calif.); purchased Bioenza (Mountain View, Calif.)
Description: HCV Protease FRET Assay (IC50), D168A mutant. Here is the method:
(§1) HCV Protease FRET Assay for Wild Type and Mutated NS3/4A 1b Enzymes (IC50)
(§2) Protease reactions were started with the addition of 45 μL of the FRET substrate and monitored for 120 minutes at λex487/λem514 through Quad^4 monochromoters in a Synergy^4 plate reader from BioTek (Winooski, Vt.). At the conclusion of each assay, progress curves from each well were examined for linear reaction kinetics and fit statistics (R^2, absolute sum of squares).
(§3) The compound numbers correspond to the compound numbers in Table 3.

Experiment [2] deals with T2, wild type HCV NS3/4A 1b protease enzyme (Hepatitis C virus genotype 1b, UniProt P26663).
T2 construct: 10× stocks of NS3/4A protease enzyme from Bioenza (Mountain View, Calif.); purchased Bioenza (Mountain View, Calif.)
Description: biochemical. How it is done: as §1, §2, §3

The target in experiment [3] is T1, D168A mutant of the HCV NS3/4A 1b protease enzyme. Description: HCV Protease FRET Assay (IC50_APP), D168A mutant. The note with it: apparent IC50, D168A mutant; read-out: IC50_APP, HCV D168A.
Experiment [4] concerns the target T2, wild type HCV NS3/4A 1b protease enzyme. Put plainly: HCV Protease FRET Assay (IC50_APP), wild type.
The target in experiment [5] is T3, R155K mutant of the HCV NS3/4A 1b protease enzyme (Hepatitis C virus genotype 1b, UniProt P26663, R1181K).
T3 construct: 10× stocks of NS3/4A protease enzyme from Bioenza (Mountain View, Calif.); purchased Bioenza (Mountain View, Calif.)
Put plainly: HCV Protease FRET Assay (IC50_APP), R155K mutant. The note with it: apparent IC50, R155K mutant; read-out: IC50_APP, HCV R155K. Here is the method: HCV Protease FRET Assay for WT and Mutated NS3/4A 1b Enzymes (IC50—APP).
The following protocol was used to generate “apparent” IC50 (IC50—APP) values as depicted in Table 6, below. […] 5 μL of each enzyme were added to Corning (#3575) 384-well, black, microtiter plates (Corning, N.Y.) after spotting a 0.5 μL volume of 50% DMSO and serially diluted compounds prepared in 50% DMSO. Protease reactions were immediately started after enzyme addition with the addition of 45 μL of the FRET substrate and monitored for 60-90 minutes at λex485/λem520 in a Synergy^4 plate reader from BioTek (Winooski, Vt.). At the conclusion of each assay, progress curves from each well were examined for linear reaction kinetics and fit statistics (R^2, 95% confidence intervals, absolute sum of squares).
The compound numbers correspond to the compound numbers in Table 3. […] ;

[6] abbreviates: read-out: Inhibition, HCV D168A, D168A enzyme, FRET assay.
[7] abbreviates: read-out: Inhibition, WT, WT enzyme, FRET assay.
[8] abbreviates: read-out: IC50_APP, WT, apparent IC50, wild type NS3/4A 1b.

With `C=CC(=O)N[C@@H](C)C(=O)N1C[C@H](Oc2cc(-c3ccccc3)nc3cc(OC)ccc23)C[C@H]1C(=O)N[C@]1(C(=O)NS(=O)(=O)c2ccccc2)C[C@H]1C=C` [Compound I-34, (2S,4R)-1-((S)-2-acrylamidopropanoyl)-4-(7-methoxy-2-phenylquinolin-4-yloxy)-N-((1R,2S)-1-(phenylsulfonylcarbamoyl)-2-vinylcyclopropyl)pyrrolidine-2-carboxamide], the values for the IC50 in experiment [1] (setting [6]) and in experiment [2] (setting [7]) were 1000 to 10000 nM and 10 to 100 nM, respectively.
For `C=CC(=O)N(C)CC(=O)N1C[C@H](Oc2cc(-c3ccccc3)nc3cc(OC)ccc23)C[C@H]1C(=O)N[C@]1(C(=O)NS(=O)(=O)C2CC2)C[C@H]1C=C` [Compound I-37, (2S,4R)—N-((1R,2S)-1-(cyclopropylsulfonylcarbamoyl)-2-vinylcyclopropyl)-4-(7-methoxy-2-phenylquinolin-4-yloxy)-1-(2-(N-methylacrylamido)acetyl)pyrrolidine-2-carboxamide] the same measures were 1000 to 10000 nM and 10 to 100 nM.
As for `C=C[C@@H]1C[C@]1(NC(=O)[C@@H]1C[C@@H](Oc2cc(-c3ccccc3)nc3cc(OC)ccc23)CN1C(=O)CNC(=O)OC(C)(C)C)C(=O)NS(=O)(=O)C1CC1` [Compound I-38, tert-butyl-2-((2S,4R)-2-((1R,2S)-1-(cyclopropylsulfonylcarbamoyl)-2-vinylcyclopropylcarbamoyl)-4-(7-methoxy-2-phenylquinolin-4-yloxy)pyrrolidin-1-yl)-2-oxoethylcarbamate], the IC50 was 100 to 1000 nM in experiment [1] (setting [6]) and below 10 nM in experiment [2] (setting [7]).
On to `C=CC(=O)OC(C)(C)[C@H](NC(=O)OC(C)(C)C)C(=O)N1CC(Oc2cc(-c3ccccc3)nc3cc(OC)ccc23)C[C@H]1C(=O)N[C@]1(C(=O)NS(=O)(=O)C2CC2)C[C@H]1C=C` (stereo partly shown) [Compound I-40], for which the figures for the IC50 in experiment [1] (setting [6]) and in experiment [2] (setting [7]) were below 10 nM and 10 to 100 nM, respectively.
Taken in the same sequence, the figures for `C=C[C@@H]1C[C@]1(NC(=O)[C@@H]1C[C@@H](Oc2cc(-c3ccccc3)nc3cc(OC)ccc23)CN1C(=O)CNC(=O)C#CC)C(=O)NS(=O)(=O)c1ccccc1` [Compound I-43, (2S,4R)-1-(2-but-2-ynamidoacetyl)-4-(7-methoxy-2-phenylquinolin-4-yloxy)-N-((1R,2S)-1-(phenylsulfonylcarbamoyl)-2-vinylcyclopropyl)pyrrolidine-2-carboxamide] were 1000 to 10000 nM and 100 to 1000 nM.
Taken in the same sequence, the figures for `C=C[C@@H]1C[C@]1(NC(=O)[C@@H]1C[C@@H](Oc2cc(-c3ccccc3)nc3cc(OC)ccc23)CN1C(=O)CNC(=O)C(=C)C)C(=O)NS(=O)(=O)c1ccccc1` [Compound I-44, (2S,4R)-1-(2-methacrylamidoacetyl)-4-(7-methoxy-2-phenylquinolin-4-yloxy)-N-((1R,2S)-1-(phenylsulfonylcarbamoyl)-2-vinylcyclopropyl)pyrrolidine-2-carboxamide] were 1000 to 10000 nM and 10 to 100 nM.
For `C=CC(=O)N1C[C@H](Oc2cc(-c3ccccc3)nc3cc(OC)ccc23)C[C@H]1C(=O)N[C@]1(C(=O)NS(=O)(=O)C2CC2)C[C@H]1C=C` [Compound I-49, (2S,4R)-1-acryloyl-N-((1R,2S)-1-(cyclopropylsulfonylcarbamoyl)-2-vinylcyclopropyl)-4-(7-methoxy-2-phenylquinolin-4-yloxy)pyrrolidine-2-carboxamide] the same measures were 100 to 1000 nM and 10 to 100 nM.
As for `C=CC(=O)N(C)C[C@@H]1NC(=O)OCCC/C=C/c2ccc3ccnc(c3c2)O[C@@H]2C[C@@H](C(=O)N[C@]3(C(=O)NS(=O)(=O)C4CC4)C[C@H]3C=C)N(C2)C1=O` [Compound I-83], the IC50 fell in the range of 1000 to 10000 nM in experiment [3], 10 to 100 nM in experiment [4] and 1000 to 10000 nM in experiment [5].
`C=CC(=O)NC[C@H](NC(=O)CCCC[C@H]1SC[C@H]2NC(=O)N[C@H]21)C(=O)N1C[C@H](Oc2nccc3cc(OC)ccc23)C[C@H]1C(=O)N[C@]1(C(=O)NS(=O)(=O)C2CC2)C[C@H]1C=C` [Compound I-103, 1-{3-Acryloylamino-2-[5-(2-oxo-hexahydro-thieno[3,4-d]imidazol-6-yl)-pentanoylamino]-propionyl}-4-(6-methoxy-isoquinolin-1-yloxy)-pyrrolidine-2-carboxylic acid (1-cyclopropanesulfonylaminocarbonyl-2-vinyl-cyclopropyl)-amide]: the IC50 in experiment [3] lay in the range of 10 to 100 nM; in experiment [4] (setting [8]) it was 10 to 100 nM; in experiment [5] it was 100 to 1000 nM.
Take `C=CC(=O)NC[C@H](NC(=O)CCCC(=O)NCCCOCCOCCOCCCNC(=O)CCCC[C@@H]1SC[C@@H]2NC(=O)N[C@@H]21)C(=O)N1C[C@H](Oc2nccc3cc(OC)ccc23)C[C@H]1C(=O)N[C@]1(C(=O)NS(=O)(=O)C2CC2)C[C@H]1C=C` [Compound I-104]: the IC50 in experiment [3] was 10 to 100 nM; in experiment [4] (setting [8]), below 10 nM; in experiment [5], 10 to 100 nM.
`C=C[C@@H]1C[C@]1(NC(=O)[C@@H]1C[C@@H](Oc2nccc3cc(OC)ccc23)CN1C(=O)[C@H](CC(=O)/C(C)=C/C)NC(=O)OC(C)(C)C)C(=O)NS(=O)(=O)C1CC1` [Compound I-133]: the IC50 in experiment [3] was 100 to 1000 nM; in experiment [4] (setting [8]), below 10 nM; in experiment [5], 10 to 100 nM.
Taken in the same sequence, the figures for `C=C[C@@H]1C[C@]1(NC(=O)[C@@H]1C[C@@H](Oc2nccc3cc(OC)ccc23)CN1C(=O)[C@@H](NC(=O)OC(C)(C)C)C(C)(C)C(=O)C=C(C)C)C(=O)NS(=O)(=O)C1CC1` [Compound I-134] were 100 to 1000 nM, below 10 nM and 10 to 100 nM.
For the compound `C=C[C@@H]1C[C@]1(NC(=O)[C@@H]1C[C@@H](Oc2nccc3cc(OC)ccc23)CN1C(=O)[C@H](CCC(=O)/C=C/c1ccccc1)NC(=O)OC(C)(C)C)C(=O)NS(=O)(=O)C1CC1` [Compound I-137], the values for the IC50 in experiment [3], in experiment [4] (setting [8]) and in experiment [5] were 1000 to 10000 nM, 10 to 100 nM and 1000 to 10000 nM, respectively.
Take `[2H]C([2H])([2H])C(=CC(=O)CC[C@H](NC(=O)OC(C)(C)C)C(=O)N1C[C@H](Oc2nccc3cc(OC)ccc23)C[C@H]1C(=O)N[C@]1(C(=O)NS(=O)(=O)C2CC2)C[C@H]1C=C)C([2H])([2H])[2H]` [Compound I-142]: the IC50 is 100 to 1000 nM in experiment [3], below 10 nM in experiment [4] (setting [8]) and 10 to 100 nM in experiment [5].
For `C=C[C@@H]1C[C@]1(NC(=O)[C@@H]1C[C@@H](Oc2nccc3cc(OC)ccc23)CN1C(=O)[C@H](CCC(=O)/C=C/C(C)(C)C)NC(=O)OC(C)(C)C)C(=O)NS(=O)(=O)C1CC1` [Compound I-143] the same measures were 1000 to 10000 nM, below 10 nM and 100 to 1000 nM.
On to `C=C[C@@H]1C[C@]1(NC(=O)[C@@H]1C[C@@H](Oc2cc(-c3ccccc3)nc3cc(OC)ccc23)CN1C(=O)CNC(=O)CC)C(=O)NS(=O)(=O)c1ccccc1` [I^R-27, (2S,4R)-4-(7-methoxy-2-phenylquinolin-4-yloxy)-N-((1R,2S)-1-(phenylsulfonylcarbamoyl)-2-vinylcyclopropyl)-1-(2-propionamidoacetyl)pyrrolidine-2-carboxamide], for which the IC50 in experiment [1] lay in the range of 1000 to 10000 nM; in experiment [2], 100 to 1000 nM.
